Laboratory results as given in PubChem BioAssay AID1963970 (Molecular Pharmacology Branch, DTP, NCI, 2024).

Test system: 931267-113-T-J1-PDC multicell spheroid viability
Assay: Anticancer human tumor 931267-113-T-J1-PDC patient-derived colon adenocarcinoma cell line growth inhibition [PI3K]
Conditions: for IC50: curve of first compound; for viability, T/C: stronger effect = lower value; active = viability on the fitted dose curve at most 10% of control; inactive = the rest
Procedure, shortened: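 Complex 3D spheroids (cancer cells + endothelial HUVEC + mesenchymal stem cells); drug pairs of targeted agent x inavolisib/alpelisib/duvelisib/copanlisib; half-log series from ~Cmax, max 10 microM if Cmax unknown; endpoint viability.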

[1] = second compound 0.0316 µM, first compound 0.0316 µM
[2] = second compound 0.0316 µM, first compound 0.1 µM
[3] = second compound 0.0316 µM, first compound 0.316 µM
[4] = second compound 0.0316 µM, first compound 1 µM
[5] = second compound 0.0316 µM, first compound 3.16 µM
[6] = second compound 0.0316 µM, first compound 10 µM
[7] = second compound 0.1 µM, first compound 0.0316 µM
[8] = second compound 0.1 µM, first compound 0.1 µM
[9] = second compound 0.1 µM, first compound 0.316 µM
[10] = second compound 0.1 µM, first compound 1 µM
[11] = second compound 0.1 µM, first compound 3.16 µM
[12] = second compound 0.1 µM, first compound 10 µM
[13] = second compound 0.316 µM, first compound 0.0316 µM
[14] = second compound 0.316 µM, first compound 0.1 µM
[15] = second compound 0.316 µM, first compound 0.316 µM
[16] = second compound 0.316 µM, first compound 1 µM
[17] = second compound 0.316 µM, first compound 3.16 µM
[18] = second compound 0.316 µM, first compound 10 µM
[19] = second compound 1 µM, first compound 0.0316 µM
[20] = second compound 1 µM, first compound 0.1 µM
[21] = second compound 1 µM, first compound 0.316 µM
[22] = second compound 1 µM, first compound 1 µM
[23] = second compound 1 µM, first compound 3.16 µM
[24] = second compound 1 µM, first compound 10 µM
[25] = second compound 3.16 µM, first compound 0.0316 µM
[26] = second compound 3.16 µM, first compound 0.1 µM
[27] = second compound 3.16 µM, first compound 0.316 µM
[28] = second compound 3.16 µM, first compound 1 µM
[29] = second compound 3.16 µM, first compound 3.16 µM
[30] = second compound 3.16 µM, first compound 10 µM
[31] = second compound 10 µM, first compound 0.0316 µM
[32] = second compound 10 µM, first compound 0.1 µM
[33] = second compound 10 µM, first compound 0.316 µM
[34] = second compound 10 µM, first compound 1 µM
[35] = second compound 10 µM, first compound 3.16 µM
[36] = second compound 10 µM, first compound 10 µM
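Note: viability read 7 days after compound addition.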

CC1(C)CCC(CN2CCN(c3ccc(C(=O)NS(=O)(=O)c4ccc(NCC5CCOCC5)c([N+](=O)[O-])c4)c(Oc4cnc5[nH]ccc5c4)c3)CC2)=C(c2ccc(Cl)cc2)C1 + CC(Nc1ncnc2nc[nH]c12)c1cc2cccc(Cl)c2c(=O)n1-c1ccccc1
inactive: viability, T/C [1] 105% | viability, T/C [2] 105% | viability, T/C [3] 102% | viability, T/C [4] 110% | viability, T/C [5] 99.3% | viability, T/C [6] 28.5% | viability, T/C [7] 113% | viability, T/C [8] 112% | viability, T/C [9] 105% | viability, T/C [10] 106% | viability, T/C [11] 107% | viability, T/C [12] 25.9% | viability, T/C [13] 103% | viability, T/C [14] 98.2% | viability, T/C [15] 106% | viability, T/C [16] 110% | viability, T/C [17] 101% | viability, T/C [18] 29.1% | viability, T/C [19] 105% | viability, T/C [20] 101% | viability, T/C [21] 95.3% | viability, T/C [22] 103% | viability, T/C [23] 92.4% | viability, T/C [24] 28.9% | viability, T/C [25] 101% | viability, T/C [26] 107% | viability, T/C [27] 97.4% | viability, T/C [28] 107% | viability, T/C [29] 99.3% | viability, T/C [30] 29% | viability, T/C [31] 92.9% | viability, T/C [32] 87.7% | viability, T/C [33] 98.4% | viability, T/C [34] 97.3% | viability, T/C [35] 92.6% | viability, T/C [36] 28.4%
7.09 µM: IC50 (second compound 3.16 µM)
7.07 µM: IC50 (second compound 0.0316 µM)
7.17 µM: IC50 (second compound 0.316 µM)
6.84 µM: IC50 (second compound 1 µM)
6.79 µM: IC50 (second compound 10 µM)
7.1 µM: IC50 (second compound 0.1 µM)

C[C@@H](NC(=O)c1ncnc(N)c1Cl)c1ncc(C(=O)Nc2cc(C(F)(F)F)c(Cl)cn2)s1 + CC(Nc1ncnc2nc[nH]c12)c1cc2cccc(Cl)c2c(=O)n1-c1ccccc1
inactive: viability, T/C [1] 107% | viability, T/C [2] 117% | viability, T/C [3] 117% | viability, T/C [4] 104% | viability, T/C [5] 92.7% | viability, T/C [6] 74.5% | viability, T/C [7] 121% | viability, T/C [8] 107% | viability, T/C [9] 110% | viability, T/C [10] 111% | viability, T/C [11] 98.9% | viability, T/C [12] 78.1% | viability, T/C [13] 113% | viability, T/C [14] 116% | viability, T/C [15] 104% | viability, T/C [16] 110% | viability, T/C [17] 103% | viability, T/C [18] 75.1% | viability, T/C [19] 115% | viability, T/C [20] 114% | viability, T/C [21] 105% | viability, T/C [22] 110% | viability, T/C [23] 107% | viability, T/C [24] 69.4% | viability, T/C [25] 98.5% | viability, T/C [26] 108% | viability, T/C [27] 103% | viability, T/C [28] 95.8% | viability, T/C [29] 98.2% | viability, T/C [30] 66.5% | viability, T/C [31] 96.4% | viability, T/C [32] 107% | viability, T/C [33] 99.8% | viability, T/C [34] 106% | viability, T/C [35] 86% | viability, T/C [36] 53.2%
> 10 µM: IC50 (second compound 0.0316 µM) | IC50 (second compound 0.1 µM) | IC50 (second compound 0.316 µM) | IC50 (second compound 1 µM) | IC50 (second compound 3.16 µM) | IC50 (second compound 10 µM)

Cn1ncnc1[C@H]1c2n[nH]c(=O)c3cc(F)cc(c23)N[C@@H]1c1ccc(F)cc1 + CC(Nc1ncnc2nc[nH]c12)c1cc2cccc(Cl)c2c(=O)n1-c1ccccc1
inactive: viability, T/C (second compound 0.0316 µM, first compound 0.000316 µM) 105% | viability, T/C (second compound 0.0316 µM, first compound 0.001 µM) 102% | viability, T/C (second compound 0.0316 µM, first compound 0.00316 µM) 102% | viability, T/C (second compound 0.0316 µM, first compound 0.01 µM) 99.6% | viability, T/C [1] 114% | viability, T/C [2] 103% | viability, T/C (second compound 0.1 µM, first compound 0.000316 µM) 117% | viability, T/C (second compound 0.1 µM, first compound 0.001 µM) 112% | viability, T/C (second compound 0.1 µM, first compound 0.00316 µM) 96% | viability, T/C (second compound 0.1 µM, first compound 0.01 µM) 98.5% | viability, T/C [7] 111% | viability, T/C [8] 95.3% | viability, T/C (second compound 0.316 µM, first compound 0.000316 µM) 110% | viability, T/C (second compound 0.316 µM, first compound 0.001 µM) 113% | viability, T/C (second compound 0.316 µM, first compound 0.00316 µM) 110% | viability, T/C (second compound 0.316 µM, first compound 0.01 µM) 102% | viability, T/C [13] 108% | viability, T/C [14] 106% | viability, T/C (second compound 1 µM, first compound 0.000316 µM) 109% | viability, T/C (second compound 1 µM, first compound 0.001 µM) 108% | viability, T/C (second compound 1 µM, first compound 0.00316 µM) 101% | viability, T/C (second compound 1 µM, first compound 0.01 µM) 100% | viability, T/C [19] 100% | viability, T/C [20] 104% | viability, T/C (second compound 3.16 µM, first compound 0.000316 µM) 104% | viability, T/C (second compound 3.16 µM, first compound 0.001 µM) 101% | viability, T/C (second compound 3.16 µM, first compound 0.00316 µM) 99.4% | viability, T/C (second compound 3.16 µM, first compound 0.01 µM) 97.6% | viability, T/C [25] 112% | viability, T/C [26] 93.3% | viability, T/C (second compound 10 µM, first compound 0.000316 µM) 103% | viability, T/C (second compound 10 µM, first compound 0.001 µM) 94.6% | viability, T/C (second compound 10 µM, first compound 0.00316 µM) 87.4% | viability, T/C (second compound 10 µM, first compound 0.01 µM) 98.8% | viability, T/C [31] 100% | viability, T/C [32] 88.1%
> 0.1 µM: IC50 (second compound 0.0316 µM) | IC50 (second compound 0.1 µM) | IC50 (second compound 0.316 µM) | IC50 (second compound 1 µM) | IC50 (second compound 3.16 µM) | IC50 (second compound 10 µM)
